Data as given in patent US10329302B2, “Bicyclic-fused heteroaryl or aryl compounds” (Pfizer Inc., priority 2014, dated 2019).

These compounds were tested against human IRAK4 kinase domain (aa 154-460) (Homo sapiens (Human), UniProt Q9NWZ3) (assay: IRAK4 Enzymatic DELFIA Assay, Protocol B). Settings: not given.
Type: biochemical
Text: IRAK4 Enzymatic DELFIA Assay, Protocol B.

human IRAK4 kinase domain (aa 154-460), sequence (Q9NWZ3 154-460): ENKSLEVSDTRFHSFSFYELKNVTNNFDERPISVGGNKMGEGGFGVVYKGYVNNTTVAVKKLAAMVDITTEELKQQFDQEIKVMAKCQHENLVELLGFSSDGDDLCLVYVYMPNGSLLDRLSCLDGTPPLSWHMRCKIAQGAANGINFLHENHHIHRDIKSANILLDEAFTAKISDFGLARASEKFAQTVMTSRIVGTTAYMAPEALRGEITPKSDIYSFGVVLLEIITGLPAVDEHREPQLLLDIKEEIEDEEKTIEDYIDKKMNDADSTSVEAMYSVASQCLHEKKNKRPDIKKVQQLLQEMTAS

SMILES | IC50 [nM]
CC(C)Oc1cc2c(OC3CC[C@@H]4CN(C(=O)CC#N)C[C@H]34)ccnc2cc1C(N)=O (single isomer, unassigned) [Example 71] | 153
CC(C)Oc1cc2c(OC3CC4CCC3C4)ccnc2cc1C(N)=O (stereo not drawn) [Example 16, 4-(bicyclo[2.2.1]hept-2-yloxy)-6-(propan-2-yloxy)quinoline-7-carboxamide] | 386
CC(C)Oc1cc2c(OC3C4CC5C(C4)C53)ccnc2cc1C(N)=O (stereo not drawn) [Example 17, 6-(propan-2-yloxy)-4-(tricyclo[2.2.1.0~2,6~]hept-3-yloxy)quinoline-7-carboxamide] | 476

Same assay, conditions: human IRAK4 kinase domain (aa 154-460), 0.6 mM ATP (KM); read-out: IRAK4 DELFIA Protocol B IC50

SMILES | IC50 [nM]
CC(C)Oc1cc2c(OC3C[C@@H]4C[C@H]3CN(C(=O)CC#N)C4)ccnc2cc1C(N)=O (stereo in doubt) [Example 92, 4-{[(1S,5S,6S)-3-(cyanoacetyl)-3-azabicyclo[3.2.1]oct-6-yl]oxy}-6-(propan-2-yloxy)quinoline-7-carboxamide] | 473
CC(C)Oc1cc2c(OCC3CNC3)ccnc2cc1C(N)=O [Example 1, 4-(azetidin-3-ylmethoxy)-6-(propan-2-yloxy)quinoline-7-carboxamide] | 2910
CC(C)Oc1cc2c(O[C@@H]3C[C@H]4C[C@@H]3CN4)nccc2cc1C(N)=O [Example 02, 1-[(1R,4R,5R)-2-azabicyclo[2.2.1]hept-5-yloxy]-7-(propan-2-yloxy)isoquinoline-6-carboxamide] | 217
CC(C)Oc1cc2c(OC[C@H]3CCCNC3)ccnc2cc1C(N)=O [Example 2, 4-[(3S)-piperidin-3-ylmethoxy]-6-(propan-2-yloxy)quinoline-7-carboxamide] | 4500
CC(C)Oc1cc2c(OC[C@@H]3CCCNC3)ccnc2cc1C(N)=O [Example 3, 4-[(3R)-piperidin-3-ylmethoxy]-6-(propan-2-yloxy)quinoline-7-carboxamide] | 2240
CC(C)Oc1cc2c(OCC3CCNCC3)ccnc2cc1C(N)=O [Example 4, 4-(piperidin-4-ylmethoxy)-6-(propan-2-yloxy)quinoline-7-carboxamide] | 913
CC(C)Oc1cc2c(OC[C@H]3[C@@H]4CNC[C@@H]43)ccnc2cc1C(N)=O [Example 5, 4-[(1R,5S,6r)-3-azabicyclo[3.1.0]hex-6-ylmethoxy]-6-(propan-2-yloxy)quinoline-7-carboxamide] | 323
CC(C)Oc1cc2c(OCC3COC3)ccnc2cc1C(N)=O [Example 6, 4-(oxetan-3-ylmethoxy)-6-(propan-2-yloxy)quinoline-7-carboxamide] | 618
CC(C)Oc1cc2c(OCC3CCCC3)ccnc2cc1C(N)=O [Example 7, 4-(cyclopentylmethoxy)-6-(propan-2-yloxy)quinoline-7-carboxamide] | 170
CC(C)Oc1cc2c(OC(C)C3CCC3)ccnc2cc1C(N)=O (stereo not drawn) [Example 8, 4-(1-cyclobutylethoxy)-6-(propan-2-yloxy)quinoline-7-carboxamide] | 834
CC(C)Oc1cc2c(OCC3CCC3)ccnc2cc1C(N)=O [Example 9, 4-(cyclobutylmethoxy)-6-(propan-2-yloxy)quinoline-7-carboxamide] | 598
CC(C)Oc1cc2c(OCC3CCOC3)ccnc2cc1C(N)=O (stereo not drawn) [Example 10, 6-(propan-2-yloxy)-4-(tetrahydrofuran-3-ylmethoxy)quinoline-7-carboxamide] | 752
CC(C)Oc1cc2c(OCC3CCCO3)ccnc2cc1C(N)=O (stereo not drawn) [Example 11, 6-(propan-2-yloxy)-4-(tetrahydrofuran-2-ylmethoxy)quinoline-7-carboxamide] | 3230
CC(C)Oc1cc2c(OCC3(C)COC3)ccnc2cc1C(N)=O [Example 12, 4-[(3-methyloxetan-3-yl)methoxy]-6-(propan-2-yloxy)quinoline-7-carboxamide] | 1040
CC(C)Oc1cc2c(OCC3(C)CCC3)ccnc2cc1C(N)=O [Example 13, 4-[(1-methylcyclobutyl)methoxy]-6-(propan-2-yloxy)quinoline-7-carboxamide] | 383
CC(C)Oc1cc2c(O[C@@H]3CC4CCC3C4)ccnc2cc1C(N)=O (stereo partly drawn) [Example 14, 4-[(2R)-bicyclo[2.2.1]hept-2-yloxy]-6-(propan-2-yloxy)quinoline-7-carboxamide] | 231
CC(C)Oc1cc2c(OC[C@H]3CCCO3)ccnc2cc1C(N)=O [Example 15, 6-(propan-2-yloxy)-4-[(2R)-tetrahydrofuran-2-ylmethoxy]quinoline-7-carboxamide] | 2970
CC(C)Oc1cc2c(OCC3COCO3)ccnc2cc1C(N)=O (stereo not drawn) [Example 18, 4-(1,3-dioxolan-4-ylmethoxy)-6-(propan-2-yloxy)quinoline-7-carboxamide] | 507
CC(C)Oc1cc2c(O[C@@H]3CC4CC[C@H]3C4)ccnc2cc1C(N)=O [Example 19, 4-[(1S,2R)-bicyclo[2.2.1]hept-2-yloxy]-6-(propan-2-yloxy)quinoline-7-carboxamide] | 354
CC(C)Oc1cc2c(OC3CC[C@@H]4CNC[C@H]34)nccc2cc1C(N)=O (stereo partly drawn) [Example 20, 1-[(3aR,6aS)-octahydrocyclopenta[c]pyrrol-4-yloxy]-7-(propan-2-yloxy)isoquinoline-6-carboxamide] | 102
CC(C)Oc1cc2c(OC3CC[C@@H]4CNC[C@H]34)ccnc2cc1C(N)=O (stereo partly drawn) [Example 21, 4-[(3aR,6aS)-octahydrocyclopenta[c]pyrrol-4-yloxy]-6-(propan-2-yloxy)quinoline-7-carboxamide] | 83

Each compound was assayed on R848-induced TNFα production by human peripheral blood mononuclear cells (PBMCs) (assay: R848 Induced TNFα in Human PBMC Assay). Settings: Homo sapiens, PBMC, 3 h, read-out: R848-induced TNFa PBMC IC50 (nM).
Type: cell-based

SMILES | IC50 [nM]
COc1cc2c(OC[C@H]3NC(=O)[C@@H](F)[C@H]3C3CC3)nccc2cc1C(N)=O [Example 368, 1-{[(2S,3S,4S)-3-cyclopropyl-4-fluoro-5-oxopyrrolidin-2-yl]methoxy}-7-methoxyisoquinoline-6-carboxamide] | 10
COc1cc2c(OC[C@H]3NC(=O)[C@H](F)[C@H]3C3CC3)nccc2cc1C(N)=O [Example 369, 1-{[(2S,3S,4R)-3-cyclopropyl-4-fluoro-5-oxopyrrolidin-2-yl]methoxy}-7-methoxyisoquinoline-6-carboxamide] | 45
COc1cc2c(OC[C@H]3NC(=O)[C@@H](F)[C@H]3CCF)nccc2cc1C(N)=O [Example 370, 1-{[(2S,3S,4S)-4-fluoro-3-(2-fluoroethyl)-5-oxopyrrolidin-2-yl]methoxy}-7-methoxyisoquinoline-6-carboxamide] | 3.7
CC(C)Oc1cc2c(OC[C@@H]3CCC(=O)N3)ncc(-c3cn(C)cn3)c2cc1C(N)=O [Example 371, 4-(1-methyl-1H-imidazol-4-yl)-1-{[(2S)-5-oxopyrrolidin-2-yl]methoxy}-7-(propan-2-yloxy)isoquinoline-6-carboxamide] | 604
Cc1nc(-c2cnc(OC[C@@H]3CCC(=O)N3)c3cc(OC(C)C)c(C(N)=O)cc23)cn1C [Example 372, 4-(1,2-dimethyl-1H-imidazol-4-yl)-1-{[(2S)-5-oxopyrrolidin-2-yl]methoxy}-7-(propan-2-yloxy)isoquinoline-6-carboxamide] | 649
Cc1nc(-c2cnc(OC[C@@H]3CCC(=O)N3)c3cc(OC(C)C)c(C(N)=O)cc23)c[nH]1 [Example 373, 4-(2-methyl-1H-imidazol-4-yl)-1-{[(2S)-5-oxopyrrolidin-2-yl]methoxy}-7-(propan-2-yloxy)isoquinoline-6-carboxamide] | 6160

Each compound was assayed against human IRAK4 FL (Full Length) (Homo sapiens (Human), UniProt Q9NWZ3) (assay: IRAK4 Enzymatic DELFIA Assay, Protocol A). Settings: human IRAK4 FL, 0.6 mM ATP (KM); read-out: IRAK4 DELFIA Protocol A IC50.
human IRAK4 FL (Full Length), sequence (Q9NWZ3 whole entry): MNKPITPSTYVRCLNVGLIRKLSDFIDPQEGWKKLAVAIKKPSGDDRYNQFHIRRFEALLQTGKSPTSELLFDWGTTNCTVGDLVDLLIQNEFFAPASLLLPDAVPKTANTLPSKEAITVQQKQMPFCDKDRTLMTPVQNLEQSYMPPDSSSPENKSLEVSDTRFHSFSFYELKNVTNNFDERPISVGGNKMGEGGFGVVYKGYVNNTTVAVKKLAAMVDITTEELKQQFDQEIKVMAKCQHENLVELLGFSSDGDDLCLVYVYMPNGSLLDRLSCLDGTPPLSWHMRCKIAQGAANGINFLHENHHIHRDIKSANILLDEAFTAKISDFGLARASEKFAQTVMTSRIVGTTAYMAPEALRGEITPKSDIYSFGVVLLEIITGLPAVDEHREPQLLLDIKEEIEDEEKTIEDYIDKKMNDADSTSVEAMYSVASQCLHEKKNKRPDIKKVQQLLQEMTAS
Type: biochemical

SMILES | IC50 [nM]
COc1cc2c(OC[C@H]3NC(=O)[C@@H](F)[C@H]3C3CC3)nccc2cc1C(N)=O [Example 368, 1-{[(2S,3S,4S)-3-cyclopropyl-4-fluoro-5-oxopyrrolidin-2-yl]methoxy}-7-methoxyisoquinoline-6-carboxamide] | 0.3
COc1cc2c(OC[C@H]3NC(=O)[C@H](F)[C@H]3C3CC3)nccc2cc1C(N)=O [Example 369, 1-{[(2S,3S,4R)-3-cyclopropyl-4-fluoro-5-oxopyrrolidin-2-yl]methoxy}-7-methoxyisoquinoline-6-carboxamide] | 3.7
COc1cc2c(OC[C@H]3NC(=O)[C@@H](F)[C@H]3CCF)nccc2cc1C(N)=O [Example 370, 1-{[(2S,3S,4S)-4-fluoro-3-(2-fluoroethyl)-5-oxopyrrolidin-2-yl]methoxy}-7-methoxyisoquinoline-6-carboxamide] | 0.1
CC(C)Oc1cc2c(OC[C@@H]3CCC(=O)N3)ncc(-c3cn(C)cn3)c2cc1C(N)=O [Example 371, 4-(1-methyl-1H-imidazol-4-yl)-1-{[(2S)-5-oxopyrrolidin-2-yl]methoxy}-7-(propan-2-yloxy)isoquinoline-6-carboxamide] | 7
Cc1nc(-c2cnc(OC[C@@H]3CCC(=O)N3)c3cc(OC(C)C)c(C(N)=O)cc23)cn1C [Example 372, 4-(1,2-dimethyl-1H-imidazol-4-yl)-1-{[(2S)-5-oxopyrrolidin-2-yl]methoxy}-7-(propan-2-yloxy)isoquinoline-6-carboxamide] | 11
Cc1nc(-c2cnc(OC[C@@H]3CCC(=O)N3)c3cc(OC(C)C)c(C(N)=O)cc23)c[nH]1 [Example 373, 4-(2-methyl-1H-imidazol-4-yl)-1-{[(2S)-5-oxopyrrolidin-2-yl]methoxy}-7-(propan-2-yloxy)isoquinoline-6-carboxamide] | 35
